For 16 molecules, IC50 and fraction unbound results are on record in US20240174690A1, “ANNULATED 2-AMINO-3-CYANO THIOPHENES AND DERIVATIVES FOR THE TREATMENT OF CANCER” (BOEHRINGER INGELHEIM INTERNATIONAL GMBH, priority 2021, published 2024).

The subject of one data set is LOVO cells. Nature of the data set: LOVO CTG proliferation assay (120 h) (CRC, G13D). Format: cell-based. The conditions noted are these: Homo sapiens, CTG 120 h. The protocol: LOVO CTG Proliferation Assay (120 h) (CRC, G13D)
LOVO cells (ATCC CCL-229) are dispensed into 384-well plates, flat and clear bottom (Greiner, PNr. 781091) at a density of 1000 cells per well in 60 μL DMEM (Sigma D6429)+10% Fetal Calf Serum (HyClone, PNr.: SH30084.03) and incubated at 37° C. in a CO2 incubator overnight. The next day, compounds (10 mM stock in DMSO) are added with the ECHO acoustic liquid handler system (Beckman Coulter), including DMSO controls. Plates are incubated for 120 h, and cell viability is measured using CellTiter-Glo luminescent cell viability reagent (Promega product code G7570). Viability (stated as percent of control) is defined as relative luminescence units RLU of each well divided by the RLU of cells in DMSO controls. IC50 values are determined from viability measurements by non-linear regression using a four-parameter model.

For a further data set, the target named is KRAS (G12D)::SOS1 (Homo sapiens (Human), UniProt P01116, G12D). Briefly: KRAS::SOS1 AlphaScreen binding assay, KRAS G12D. The source says: This assay can be used to examine the potency with which compounds according to the invention binding to (mutated) KRAS inhibit the protein-protein interaction between SOS1 and (mutated) KRAS e.g., KRAS WT, KRAS G12C, KRAS G12D, KRAS G12V, KRAS G13D. […] Low IC50 values in this assay setting are indicative of strong inhibition of protein-protein interaction between SOS1 and KRAS:
These assays measure the inhibitory effect of compounds on KRAS mutant protein-protein interactions using the Alpha Screen technology by Perkin Elmer.
The following (mutant) enzyme forms of KRAS and interacting proteins are used in these assays at the given concentrations: • KRAS (G12D) 1-169, N-terminal 6His-tag, C-terminal avi-tag (Xtal BioStructures, Inc.); final assay concentration 10 nM and SOS1 564-1049, N-terminal 229 GST-tag, TEV cleavage site (Viva Biotech Ltd); final assay concentration 5 nM; • KRAS (G12C) 1-169, N-terminal 6His-tag for purification, cleaved off, C-terminal avi-tag, biotinylated, mutations: C51S, C80L, C118S (in house); final assay concentration 7.5 nM and SOS1 564-1049, N-terminal 229 GST-tag, TEV cleavage site (Viva Biotech Ltd); final assay concentration 5 nM; • KRAS (G12V) 1-169, N-terminal 6His-tag for purification, cleaved off, C-terminal avi-tag, biotinylated, TEV cleavage site, mutation: C118S, GDP loaded (in house); final assay concentration 10 nM and SOS1 564-1049, N-terminal 229 GST-tag, TEV cleavage site (Viva Biotech Ltd); final assay concentration 10 nM; • KRAS (G13D) 1-169, N-terminal 6His-tag for purification, cleaved off, C-terminal avi-tag, biotinylated, TEV cleavage site, mutation: C118S, GDP loaded (in house); final assay concentration 10 nM and SOS1 564-1049, N-terminal 229 GST-tag, TEV cleavage site (Viva Biotech Ltd); final assay concentration 10 nM; • KRAS (WT) 1-169, N-terminal 6His-tag for purification, cleaved off, C-terminal avi-tag, biotinylated, TEV cleavage site, mutation: C118S, GDP loaded (in house); final assay concentration 10 nM and SOS1 564-1049, N-terminal 229 GST-tag, TEV cleavage site (Viva Biotech Ltd); final assay concentration 10 nM.
Test compounds dissolved in DMSO are dispensed onto assay plates (Proxiplate 384 PLUS, white, PerkinElmer; 6008289) using an Access Labcyte Workstation with the Labcyte Echo 55×. For the chosen highest assay concentration of 100 μM, 150 nL of compound solution are transferred from a 10 mM DMSO compound stock solution. A series of eleven fivefold dilutions per compound are transferred to the assay plate, compound dilutions are tested in duplicates. DMSO are added as backfill to a total volume of 150 nL.
The assays run on a fully automated robotic system in a darkened room below 100 Lux. To 150 nl of compound dilution 10 μl of a mix including KRAS mutant protein, SOS1 (final assay concentrations see above) and GDP nucleotide (Sigma G7127; final assay concentration 10 μM) in assay buffer (1×PBS, 0.1% BSA, 0.05% Tween 20) are added into columns 1-24.
After 30 minutes incubation time 5 μl of Alpha Screen bead mix in assay buffer are added into columns 1-23. Bead mix consists of AlphaLISA Glutathione Acceptor Beads (PerkinElmer, Cat No AL109) and AlphaScreen Streptavidin Donor Beads (PerkinElmer Cat No 6760002) in assay buffer at a final assay concentration of 10 μg/ml each.
Plates are kept at room temperature in a darkened incubator. After an additional 60 minutes incubation time the signal is measured in a PerkinElmer Envision HTS Multilabel Reader using the AlphaScreen specs from PerkinElmer.
Each plate contains up to 16 wells of a negative control depending on the dilution procedure (platewise or serial) (DMSO instead of test compound; with KRAS mutant::SOS1 GDP mix and bead mix; column 23) and 16 wells of a positive control (DMSO instead of test compound; with KRAS mutant::SOS1 GDP mix w/o bead mix; column 24).
As internal control known inhibitors of KRAS mutant::SOS1 interaction can be measured on each compound plate. […]
Background: Bead proximity is the source of the signal in Alpha formats.

A short description of data set [1]: Plasma protein binding assay (PPB), equilibrium dialysis, 10% FCS in PBS. The conditions noted are these: bovine, read-out: PPB 10% FCS (% fu). Format: in vitro ADME. The protocol: Binding of test compounds to plasma was determined using equilibrium dialysis (ED) and quantitative mass spectrometry interfaced with liquid chromatography (LC-MS). In brief, ED was performed with dialysis devices consisting of two chambers separated by a semipermeable membrane with a molecular weight cut-off of 5-10 kg/mol. One chamber was filled with 10% FCS in PBS containing 1-10 μmol/L test compound and the other chamber was filled with phosphate-buffer saline (PBS) with or without dextran. The dialysis chamber was incubated for 3-5 hours at 37° C. After incubation, protein was precipitated from aliquots of each chamber and the concentration of test compound in the supernatant of the plasma-containing compartment (Cserum) and of the buffer-containing compartment (Cbuffer) was determined by LC-MS. The fraction of unbound test compound (not bound to plasma) (fu) was calculated according to the following equation: […]
On the technique in general: In equilibrium dialysis only unbound substance equilibrates across the membrane.

pIC50: −log10 of the molar value.

Sequence of KRAS (G12D)::SOS1 (P01116 other isoform, or with tags, fused parts or gaps G12D): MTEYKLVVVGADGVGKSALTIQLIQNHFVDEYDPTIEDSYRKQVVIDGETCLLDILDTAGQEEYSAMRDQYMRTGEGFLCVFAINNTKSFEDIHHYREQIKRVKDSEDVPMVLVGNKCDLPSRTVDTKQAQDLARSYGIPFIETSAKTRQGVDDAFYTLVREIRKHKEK

Broadly, the pIC50 is −log10 of the IC50, conventionally taken in molar units. `COCc1cn(-c2cc(O[C@@H](C)[C@@H]3CCCN3C)nc(-c3noc4c3CCC[C@@]43CCCc4sc(N)c(C#N)c43)n2)nn1` [II-121]: the pIC50 in the data set on LOVO cells was 6.89; on KRAS (G12D)::SOS1, 8.52. For the same molecule, in data set [1], the fraction unbound is 0.4.
`C[C@H](Oc1cc(N2CCOC3(COC3)C2)nc(-c2noc3c2CCC[C@@]32CCCc3sc(N)c(C#N)c32)n1)[C@@H]1CCCN1C` [II-77]: the pIC50 with LOVO cells was 7.41; on KRAS (G12D)::SOS1, 9.00. Also, in data set [1], the fraction unbound was 0.16.
In the same order, the values of `C[C@H](Oc1cc(N2CCOC3(CC3)C2)nc(-c2noc3c2CCC[C@@]32CCCc3sc(N)c(C#N)c32)n1)[C@@H]1CCCN1C` [II-61] are 6.56, 8.52 and 0.26.
For the molecule `C[C@H](Oc1cc(-c2cc[nH]n2)nc(-c2noc3c2CCC[C@@]32CCCc3sc(N)c(C#N)c32)n1)[C@@H]1CCCN1C` [II-71], the figures for the negative-log IC50 (pIC50) with LOVO cells and on KRAS (G12D)::SOS1 were 7.30 and 8.70, respectively. In addition, the fraction unbound in data set [1] amounted to 0.59.
For the molecule `C[C@H](Oc1cc(N2C[C@H](C)NC3(CC3)C2)nc(-c2onc3c2CCC[C@@]32CCCc3sc(N)c(C#N)c32)n1)[C@@H]1CCCN1C` [I-8], the pIC50 was 6.53 in the data set on LOVO cells and 9.00 at KRAS (G12D)::SOS1. Moreover, the fraction unbound in data set [1] was determined as 0.77.
The matching figures for `C[C@H](Oc1cc(-c2ccn(C3COC3)n2)nc(-c2noc3c2CCC[C@@]32CCCc3sc(N)c(C#N)c32)n1)[C@@H]1CCCN1C` [II-109]: 7.12, 8.52 and 0.18.
As to `CO[C@@H]1C[C@@H]([C@H](C)Oc2cc(-c3ccn(C4COC4)n3)nc(-c3noc4c3CCC[C@@]43CCCc4sc(N)c(C#N)c43)n2)N(C)C1` [II-107], the pIC50 is 6.00 in the data set on LOVO cells and 8.40 at KRAS (G12D)::SOS1. In addition, the fraction unbound in data set [1] was 0.24.
The matching figures for `C[C@H](Oc1cc(-c2ccn(C3CC3)n2)nc(-c2noc3c2CCC[C@@]32CCCc3sc(N)c(C#N)c32)n1)[C@@H]1CCCN1C` [II-98]: 6.22, 8.40 and 0.01.
In the same order, the values of `C[C@H](Oc1cc(N2CCC[C@H](O)C2)nc(-c2noc3c2CCC[C@@]32CCCc3sc(N)c(C#N)c32)n1)[C@@H]1CCCN1C` [II-57] are 6.30, 8.70 and 0.5.
The matching figures for `C[C@H](Oc1cc(N2CC[C@H](N(C)C)C2)nc(-c2onc3c2CCC[C@@]32CCCc3sc(N)c(C#N)c32)n1)[C@@H]1CCCN1C` [I-11]: 5.77, 9.00 and 0.33.
Consider `C[C@H](Oc1cc(-c2ccn(-c3ccccc3)n2)nc(-c2noc3c2CCC[C@@]32CCCc3sc(N)c(C#N)c32)n1)[C@@H]1CCCN1C` [II-89], for which the negative-log IC50 (pIC50) in the data set with LOVO cells was 6.34; at KRAS (G12D)::SOS1, 7.92.
With `C[C@H](Oc1cc(-c2cn(C3CCOCC3)nn2)nc(-c2noc3c2CCC[C@@]32CCCc3sc(N)c(C#N)c32)n1)[C@@H]1CCCN1C` [II-115], on KRAS (G12D)::SOS1, the pIC50 was 7.89. Also, the fraction unbound in data set [1] came to 0.43.
The matching figures for `Cc1nc(-c2cc(O[C@@H](C)[C@@H]3CCCN3C)nc(-c3noc4c3CCC[C@@]43CCCc4sc(N)c(C#N)c43)n2)cs1` [II-103]: 8.70 and 0.07.
At KRAS (G12D)::SOS1, `C[C@H](Oc1cc(-c2ccn3ncnc3c2)nc(-c2noc3c2CCC[C@@]32CCCc3sc(N)c(C#N)c32)n1)[C@@H]1CCCN1C` [II-104] had a negative-log IC50 (pIC50) of 8.30. The fraction unbound in data set [1] stood at 0.18.
In the same order, the values of `C[C@H](Oc1cc(N2CCNCC23CCOC3)nc(-c2onc3c2CCC[C@@]32CCCc3sc(N)c(C#N)c32)n1)[C@@H]1CCCN1C` (stereo partly drawn) [I-10] are 9.00 and 0.7.
`C[C@H](Oc1cc(-c2ccn(-c3ccsc3)n2)nc(-c2noc3c2CCC[C@@]32CCCc3sc(N)c(C#N)c32)n1)[C@@H]1CCCN1C` [II-84]: the pIC50 with LOVO cells was 6.54; at KRAS (G12D)::SOS1, 8.22.
